In ChEMBL document CHEMBL1201862, “PubChem BioAssay data set” (2004) one finds EC50, IC50 and AC50 data, which are given here for 22 molecules.

The test system of test [1] is BJ. Briefly: BJ-TERT-LT-ST fibroblast viability loss – cell-based, RAS-independent, luminescence, dose response (AID 1935).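 Also: BJ fibroblasts immortalized with TERT plus LT and ST oncogenes.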 The class given is functional. As to conditions: Homo sapiens.
In test [2] the test system is BJ. Briefly: BJ-TERT fibroblast viability loss – cell-based, RAS-independent, luminescence, dose response (AID 1933). The class given is functional. As to conditions: Homo sapiens.
Test [3] has as its system BJ. Briefly: cells. As to conditions: Homo sapiens. The class given is functional, cell-based.
A short description of test [4]: DRD fibroblast viability loss – cell-based, non-viral oncogenic, luminescence, dose response (AID 1934). The class given is functional. As to conditions: Homo sapiens.
The target in test [5] is T1, Calpain-2 catalytic subunit (Sus scrofa, UniProt P43367).
T1 sequence (P43367 whole entry): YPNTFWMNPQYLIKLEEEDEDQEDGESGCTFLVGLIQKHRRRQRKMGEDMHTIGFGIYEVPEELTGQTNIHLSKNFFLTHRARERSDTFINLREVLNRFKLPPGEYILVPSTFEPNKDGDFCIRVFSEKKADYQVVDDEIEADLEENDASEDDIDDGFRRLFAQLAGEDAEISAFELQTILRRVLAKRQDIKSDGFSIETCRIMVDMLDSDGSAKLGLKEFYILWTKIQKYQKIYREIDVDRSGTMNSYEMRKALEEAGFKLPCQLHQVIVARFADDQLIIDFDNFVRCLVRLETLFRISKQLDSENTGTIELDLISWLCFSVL
Briefly: m-calpain protease blockers, concentration series – biochemical, fluorogenic peptide substrate, dose response (AID 1420). Type of test: functional.

The nature of test [6]: alpha-synuclein stem-loop luciferase translation blockers – H4 neuroglioma cells, luminescence, confirmation (AID 1988). The class given is functional, cell-based.
Test [7] in a line: Luminescence Cell-Based Dose Response HTS to Identify Inhibitors of 5'UTR Stem-Loop Driven Prion Protein mRNA Translation in H4 Neuroglioblastoma Cells. [Related pubchem assays: 1827 (Project Summary), 1813 (Primary HTS)]. The class given is functional.
Test [8] is described as follows: luciferase reporter signal suppression in cells – H4 neuroglioma cells, luminescence, dose response (AID 1990). Type of test: functional, cell-based.
In test [9] the target is T2, Protein RecA (Mycobacterium tuberculosis, UniProt P9WHJ3).
T2 sequence (P9WHJ3 whole entry): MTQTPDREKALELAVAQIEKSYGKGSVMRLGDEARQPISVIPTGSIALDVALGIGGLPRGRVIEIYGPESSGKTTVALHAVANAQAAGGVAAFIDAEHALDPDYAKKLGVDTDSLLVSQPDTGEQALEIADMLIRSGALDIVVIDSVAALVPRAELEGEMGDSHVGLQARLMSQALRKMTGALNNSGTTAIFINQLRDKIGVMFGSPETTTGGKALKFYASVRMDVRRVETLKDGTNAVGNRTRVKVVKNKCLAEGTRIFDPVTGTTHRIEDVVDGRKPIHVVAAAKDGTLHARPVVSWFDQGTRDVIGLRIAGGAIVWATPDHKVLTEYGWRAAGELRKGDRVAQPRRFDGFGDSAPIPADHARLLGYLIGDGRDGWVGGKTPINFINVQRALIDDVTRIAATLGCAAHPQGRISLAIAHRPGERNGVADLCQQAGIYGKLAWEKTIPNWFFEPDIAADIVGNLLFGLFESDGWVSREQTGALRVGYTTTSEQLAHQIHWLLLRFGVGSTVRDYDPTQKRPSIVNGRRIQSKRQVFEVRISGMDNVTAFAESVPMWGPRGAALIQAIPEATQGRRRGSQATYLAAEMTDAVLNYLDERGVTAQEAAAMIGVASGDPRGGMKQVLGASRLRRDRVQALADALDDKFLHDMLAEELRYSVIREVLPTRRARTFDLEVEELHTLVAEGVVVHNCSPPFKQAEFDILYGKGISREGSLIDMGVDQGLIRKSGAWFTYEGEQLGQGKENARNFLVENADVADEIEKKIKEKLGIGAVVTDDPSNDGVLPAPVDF
Briefly: Fluorescence Cell-Free Homogeneous Dose Retest to Identify Inhibitors of RecA-Intein Splicing Activity. [Related pubchem assays (depositor defined):AID2097, AID2223, AID489010, AID492950]. Type of test: functional.

In test [10] the target is T3, Replicative DNA helicase DnaB (Mycobacterium tuberculosis, UniProt P9WMR3).
T3 sequence (P9WMR3 whole entry): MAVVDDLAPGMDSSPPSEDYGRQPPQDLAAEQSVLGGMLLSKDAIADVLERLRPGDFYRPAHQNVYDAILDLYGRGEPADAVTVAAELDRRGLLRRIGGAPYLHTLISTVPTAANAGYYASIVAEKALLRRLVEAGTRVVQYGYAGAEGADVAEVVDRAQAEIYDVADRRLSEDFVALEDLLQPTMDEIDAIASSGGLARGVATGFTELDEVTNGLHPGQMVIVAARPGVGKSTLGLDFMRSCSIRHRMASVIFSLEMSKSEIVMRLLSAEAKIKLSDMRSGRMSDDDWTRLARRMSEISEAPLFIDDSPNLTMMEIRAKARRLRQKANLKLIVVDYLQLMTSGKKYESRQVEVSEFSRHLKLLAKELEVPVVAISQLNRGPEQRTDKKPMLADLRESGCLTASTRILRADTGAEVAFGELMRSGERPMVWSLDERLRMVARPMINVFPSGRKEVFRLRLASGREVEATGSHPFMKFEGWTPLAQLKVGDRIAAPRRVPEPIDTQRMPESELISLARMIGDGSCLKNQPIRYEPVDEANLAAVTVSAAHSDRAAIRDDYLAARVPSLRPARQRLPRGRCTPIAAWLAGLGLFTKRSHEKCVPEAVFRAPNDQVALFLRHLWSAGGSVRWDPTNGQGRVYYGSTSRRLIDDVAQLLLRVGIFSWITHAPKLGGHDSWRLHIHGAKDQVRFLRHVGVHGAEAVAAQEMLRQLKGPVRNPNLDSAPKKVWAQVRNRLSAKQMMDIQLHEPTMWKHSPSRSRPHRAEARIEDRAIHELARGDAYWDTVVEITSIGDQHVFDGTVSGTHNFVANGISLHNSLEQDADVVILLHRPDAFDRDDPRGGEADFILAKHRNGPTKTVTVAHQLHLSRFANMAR
Briefly: DnaB intein splicing inhibitors, dose response, biochemical, cell-free fluorescence (AID 449749). The class given is functional.

Test [11] in a line: Luminescence Cell-Based Dose Confirmation HTS to Identify Inhibitors of Platelet Dense Granule Release. [Related pubchem assays: 1663 (Primary HTS), 1678 (Summary of Project)]. Type of test: functional.
Test [12] addresses Luciferin 4-monooxygenase (Photinus pyralis, UniProt P08659). Briefly: inhibition of purified Photinus pyralis luciferase – biochemical, luminescence, dose response (AID 1891).
In test [13] the target is T4, Heat shock factor protein 1 (Mus musculus, UniProt P38532).
T4 sequence (P38532 whole entry): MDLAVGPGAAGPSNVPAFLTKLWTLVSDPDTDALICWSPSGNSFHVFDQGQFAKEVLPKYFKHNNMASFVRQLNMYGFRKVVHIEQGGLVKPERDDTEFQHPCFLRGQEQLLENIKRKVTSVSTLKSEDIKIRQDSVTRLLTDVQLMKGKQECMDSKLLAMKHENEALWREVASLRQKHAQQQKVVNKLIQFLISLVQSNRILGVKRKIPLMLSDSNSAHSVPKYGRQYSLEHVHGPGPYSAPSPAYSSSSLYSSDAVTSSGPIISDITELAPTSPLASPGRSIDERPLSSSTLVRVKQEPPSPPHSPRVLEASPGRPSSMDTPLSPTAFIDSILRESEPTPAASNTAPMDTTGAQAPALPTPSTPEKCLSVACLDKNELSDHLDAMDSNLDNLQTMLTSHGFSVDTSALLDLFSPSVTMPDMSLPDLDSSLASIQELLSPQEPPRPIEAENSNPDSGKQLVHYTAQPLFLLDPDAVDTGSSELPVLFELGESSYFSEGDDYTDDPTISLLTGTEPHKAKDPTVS
Briefly: decrease of HSF1-responsive luciferase luminescence – cell-based, NIH3T3, dose retest, confirmation (AID 2382).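 Also: NIH3T3 fibroblasts with HSF1-driven luciferase reporter stressed by proteasome inhibitor MG132; luminescence from HSF1-driven luciferase expression after 8 hours of MG132 stress.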 The class given is functional.

Calls of active or inactive are those of the source. Rule as the data show it, for most assays here: actives have a measured EC50 and inactives only a lower limit. Some results are limits rather than exact numbers.

Chain of Luciferin 4-monooxygenase (P08659 whole entry): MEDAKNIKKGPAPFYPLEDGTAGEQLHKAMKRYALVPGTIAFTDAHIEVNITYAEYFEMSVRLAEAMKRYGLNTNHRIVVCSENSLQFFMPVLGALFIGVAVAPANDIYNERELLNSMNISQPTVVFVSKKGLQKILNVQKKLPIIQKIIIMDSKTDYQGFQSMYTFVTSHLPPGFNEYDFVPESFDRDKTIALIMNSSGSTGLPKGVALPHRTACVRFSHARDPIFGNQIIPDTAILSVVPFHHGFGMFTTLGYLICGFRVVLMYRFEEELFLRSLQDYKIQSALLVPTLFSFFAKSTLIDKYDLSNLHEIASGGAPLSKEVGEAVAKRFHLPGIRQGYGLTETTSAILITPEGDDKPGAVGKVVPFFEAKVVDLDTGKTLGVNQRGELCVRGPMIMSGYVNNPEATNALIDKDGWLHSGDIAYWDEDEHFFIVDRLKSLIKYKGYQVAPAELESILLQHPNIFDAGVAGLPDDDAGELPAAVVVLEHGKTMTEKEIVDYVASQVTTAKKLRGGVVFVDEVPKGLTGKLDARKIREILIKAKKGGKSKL

For the molecule `CCn1cnc2c([N+](=O)[O-])c(NS(=O)(=O)c3ccc(C)cc3)ccc21`, the EC50 in [1] was > 150 µM (inconclusive); in test [2], > 150 µM (not active); in test [3], > 150 µM (not active); in [4], > 150 µM (not active).
With `CCC(C)C(=O)Nc1ccc([N+](=O)[O-])cc1OC` (stereo not given), the IC50 in test [5] is reported as 16.1 µM (not active).
Take `CCCN1CCC(=NNc2ccc(S(=O)(=O)N3CCOCC3)cc2[N+](=O)[O-])CC1`: the EC50 is 6.57 µM (active) in test [6], 13.8 µM (active) in [7] and 11.1 µM (inconclusive) in test [8].
`Cc1ccc(SC[C@H](Cc2ccccc2)N2CCN(CCc3ccccc3)CCC2=O)cc1`: the IC50 in test [5] is recorded as 5.01 µM (not active).
On to `CCOc1ccc(NC(=S)NC(=O)/C=C/c2ccc(OC)cc2)c([N+](=O)[O-])c1`, for which the IC50 in [5] is given as 17.2 µM (not active).
`COc1ccc(/C=C2\SC(=S)N(CC(=O)OCC(=O)Nc3cc(Cl)cc(Cl)c3)C2=O)cc1`: the EC50 in test [1], in [2], in test [3] and in test [4] was > 150 µM (not active) in each case.
Turning to `CCOC(=O)c1ccc(NC(=O)Nc2ncccc2C)cc1`, the IC50 in [5] is reported as 12.4 µM (not active).
Take `CCC1CCCCN1C(=O)c1ccc(OC2CCN(C(=O)C3CC3)CC2)cc1` (stereo not given): the IC50 in test [5] is > 50 µM (not active).
As for `O=Cc1ccc(-n2nncc2-c2ccc([N+](=O)[O-])cc2)cc1`, in test [5], the IC50 is listed as 12.6 µM (not active).
With `CCOC(=O)c1c(NC(=O)CNC2CCCCC2)sc(C)c1C`, the IC50 in [5] is reported as 6.04 µM (not active).
Same read-out and setting: under `CC(C)Cn1c(N)c(C(=O)COC(=O)c2ccccc2F)c(=O)n(C)c1=O` stands > 50 µM (not active).
Turning to `COc1ccc(C2CC(C(F)(F)F)n3ncc(C(=O)Nc4cccc(O)c4)c3N2)cc1OC` (stereo not given), the values for the EC50 in [6], in test [7] and in test [8] were 54.7 µM (active), 23.2 µM (active) and 20.3 µM (active), respectively.
As for `O=C(Nc1cnn(Cc2ccc(F)cc2)c1)c1cc2nc(-c3ccco3)cc(C(F)(F)F)n2n1`, in test [5], the IC50 is 0.777 µM (not active).
On to `O=S(=O)(c1ccc2c(c1)OCCO2)N1CCc2ccccc21`, for which the IC50 in test [5] was > 50 µM (not active).
Turning to `CCCCNc1nc(NC)nc(Cl)c1SC`, the EC50 in [6], in test [7] and in [8] was > 120 µM (not active) each time.
In the case of `CCOC(=O)c1c(C)nc2sc3c(=O)n(-c4ccc(OC)cc4)cnc3c2c1-c1ccc(OC)cc1`, the figures for the EC50 in test [6], in [7] and in test [8] were 21.1 µM (active), > 120 µM (not active) and 12.9 µM (active), respectively.
Turning to `COc1cc(OC)cc(C(=O)NCCN2CCOCC2)c1`, the IC50 in test [5] is reported as 48.3 µM (not active).
With `O=C(O)COc1cccc(/C=C2/SC(=S)N(Cc3ccccc3)C2=O)c1`, the EC50 in test [9] is 10.1 µM (active); in test [1], > 150 µM (inconclusive); in [2], > 150 µM (not active); in test [3], > 150 µM (not active); in test [4], > 150 µM (not active). Further, the AC50 in [10] is 9.8 µM (active).
For the molecule `CCOC(=O)CN1N=C(/C=C/c2ccc(C(C)C)cc2)CCC1=O`, the IC50 in test [5] is 9.2 µM (active).
Take `COc1cc(O)oc1/C=N/c1ccc(C(=O)O)cc1`: the EC50 was 2.74 µM (active) in test [11]; 10.7 µM (active) in [12]; > 150 µM (inconclusive) in [1]; 13.7 µM (active) in [2]; 9.97 µM (active) in test [3]; > 195 µM (not active) in [13]. The EC50 in [4] is 10.7 µM (active).
On to `C/C(CC(=O)Nc1ccccn1)=N\NC(=O)c1ccccc1O`, for which the concentration giving a half-maximal response (EC50) in test [6] was 12.7 µM (active); in test [7], 10.9 µM (active); in test [8], 14 µM (active).
In the case of `CN(C)c1ccc2nc3ccc(N(C)C)cc3[s+]c2c1` [METHYLENE BLUE ANHYDROUS], the concentration giving a half-maximal response (EC50) in test [6] is 5.46 µM (inconclusive); in [7] it was 11.1 µM (inconclusive).
